Experiment [1] concerns liver cancer cell line HepG2. As to the kind of experiment: MTT cancer cell cytotoxicity assay, HepG2. Format: cell-based, human. The note with it: Homo sapiens, HepG2 cells, 48-72 h. The essentials:
(§1)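 Seeding: HepG2 and A549 at 3000, SMMC7721 at 5000, B16F10 at 2000 cells/well, attached overnight. Compounds (10 μM to 1 nM, triplicate) were applied for 48-72 h at 37 °C, followed by 4 h MTT. A550 minus A660 was fitted for IC50, with untreated wells as maximum and reference-drug total kill as background.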

For experiment [2], the system named is caspase-3 activation. As to the kind of experiment: Caspase-3 activation (apoptosis induction) in T-47D cells. To be noted: Homo sapiens; T47D cells, 24 h treatment; read-out: EC50 to induce caspase-3 activation, T47D. Type of experiment: cell-based. The method, then:
(§2) Identification of 3-(2-methoxyphenyl)-6-(4-methoxyphenyl)-[1,2,4]triazolo[4,3-a]pyridine and analogs as inducers of apoptosis in solid tumor cells
(§3) Human breast cancer cell line T-47D and lung cancer cell line A549, growing in DMEM/F12+10% FBS media were seeded to a density of 20000 cells/well in 96-well cell culture plate and grew overnight (18-24 h) in CO2 cell culture incubator at 37° C. Next day the medium were removed by aspiration and […] fresh growth media was added to each well followed by […] of growth media containing 10× concentration of reference or testing compounds with 10% DMSO. Twenty four hours later, cell culture plates were centrifuged at 1000 g for 5 min and the supernatant was removed by emptying contents into a reservoir. Fifty μl of Lysis Buffer (10 mM Tris, pH7.5, 0.1M NaCl, 1 Mm EDTA, 0.01% Triton X-100) was added to each well and the plates were incubated with gentle agitation on an orbital shaker at 4° C. for 30 min. The plates were then centrifuged at 1000 g for 10 min at 4° C. and 20 μl of the supernatant was transferred from each well to a corresponding well in a black 384-well. Twenty μl of caspase-3 assay buffer (20 mM PIPES, pH7.4, 4 Mm EDTA and 0.2% CHAPS) containing 20 μM fluorogenic caspase-3 substrate ((Ac-DEVD)2-R110, AnaSpec Cat #60304-5) was added to each well. The samples were mixed by agitation and incubated at 37° C. for 3 h. The fluorescent intensity of each well was read on a fluorescent plate reader (Varioskan Flash, Thermo Fisher Scientific) with excitation wavelength at 496 nm and emission wavelength at 520 nm. The activity of compounds on caspase-3 activation was determined by plotting the relative fluorescent unit (RFU) against the testing concentrations of the compounds. The EC50 values were determined by fitting the above responding curves into Prism sigmoidal dose-response equation (GraphPad Software, Inc).

Experiment [3] relates to caspase-3 activation. As to the kind of experiment: Caspase-3 activation (apoptosis induction) in A549 cells. Type of experiment: cell-based. To be noted: Homo sapiens, A-549 cells, 24 h treatment, read-out: EC50 to induce caspase-3 activation, A-549. As to the method: as §2, §3
Experiment [4] has as its system mouse melanoma cell line B16F10. Kind of experiment: MTT cancer cell cytotoxicity assay, B16F10. Format: cell-based. The note with it: Mus musculus, B16-F10, B16F10 cells, 48-72 h. Summed up:
as §1

Experiment [5] concerns breast cancer cell line T47D. Kind of experiment: MTT cancer cell cytotoxicity assay, T47D. Type of experiment: cell-based, human. The note with it: Homo sapiens, T47D cells, 48-72 h. Summed up: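 Human T47D breast cancer cells, cultured per ATCC recommendations with 10% fetal bovine serum and penicillin/streptomycin, were plated at 3000 cells/well in 96-well plates. After overnight attachment they were exposed in triplicate to compounds (10 μM to 1 nM) for 48-72 h. MTT was then added for 4 h and the formazan dissolved in DMSO. Absorbance at 550 nm minus 660 nm was fitted in Prism 5 to give IC50.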

In experiment [6] the test system is liver cancer cell line SMMC7721. As to the kind of experiment: MTT cancer cell cytotoxicity assay, SMMC7721. Format: cell-based, human. To be noted: Homo sapiens, SMMC-7721, SMMC7721 cells, 48-72 h. The essentials:
as §1

Experiment [7] deals with Human lung cancer cell line A549. As to the kind of experiment: MTT cancer cell cytotoxicity assay, A549. Type of experiment: cell-based. The note with it: Homo sapiens, A549 cells, 48-72 h. The essentials: as §1

In US9199983B2, “3-aryl-6-aryl-[1,2,4]triazolo[4,3-α]pyridines as inhibitors of cell proliferation and the use thereof” (priority 2010, dated 2015) one finds IC50 and EC50 data, which are given here for five compounds.

As to `COc1ccc(-c2ccc3nnc(-c4ccc(C)cc4OC)n3c2)cc1` [Example 66, 3-(2-Methoxy-4-methylphenyl)-6-(4-methoxyphenyl)-[1,2,4]triazolo[4,3-a]pyridine], the IC50 – broadly, the concentration that gives 50% inhibition – worked out at 15 nM in experiment [1]; 3.4 nM in experiment [4]; 19 nM in experiment [5]; 3.7 nM in experiment [6]; 12 nM in experiment [7]. The results for the concentration for a half-maximal effect (EC50) in experiment [2] and in experiment [3] were 62 nM and 11 nM, respectively.

Consider `COc1ccc(-c2ccc3nnc(-c4ccc(Cl)cc4OC)n3c2)cc1` [Example 57, 3-(4-Chloro-2-methoxyphenyl)-6-(4-methoxyphenyl)-[1,2,4]triazolo[4,3-a]pyridine], for which the concentration for half-maximal inhibition (IC50) in experiment [1] was 3.4 nM; in experiment [4] it was 1.6 nM; in experiment [5] it was 4.1 nM; in experiment [6], 6.7 nM; in experiment [7], 3.4 nM. Also, the EC50 (in general, the concentration at which the effect is half-maximal) was 20 nM in experiment [2] and 5 nM in experiment [3].

Regarding `COc1ccc(-c2ccc3nnc(-c4ccccc4OC)n3c2)cc1Cl` [Example 26, 6-(3-Chloro-4-methoxyphenyl)-3-(2-methoxyphenyl)-[1,2,4]triazolo[4,3-a]pyridine], the IC50 in experiment [1] worked out at 23 nM; in experiment [4] it was 23 nM; in experiment [5], 52 nM; in experiment [6], 12 nM; in experiment [7] it was 33 nM. For the same compound, the figures for the EC50 in experiment [2] and in experiment [3] were 240 nM and 32 nM, respectively.

In the case of `COc1ccc(-c2ccc3nnc(-c4ccccc4OC)n3c2)cc1F` [Example 35, 6-(3-Fluoro-4-methoxyphenyl)-3-(2-methoxyphenyl)-[1,2,4]triazolo[4,3-a]pyridine], the IC50 in experiment [1] is 19 nM; in experiment [4] it was 16 nM; in experiment [5] it was 68 nM; in experiment [6] it was 9.9 nM; in experiment [7] it was 20 nM. For the same compound, the EC50 was 228 nM in experiment [2] and 25 nM in experiment [3].

Turning to `COc1ccc(-c2ccc3nnc(-c4ccccc4OC)n3c2)cc1` [Example 1, 3-(2-Methoxyphenyl)-6-(4-methoxyphenyl)-[1,2,4]triazolo[4,3-a]pyridine], the IC50 in experiment [1] is 28 nM; in experiment [4], 36 nM; in experiment [5] it was 37 nM; in experiment [6], 13 nM; in experiment [7], 35 nM. Besides, the values for the concentration for a half-maximal effect (EC50) in experiment [2] and in experiment [3] were 55 nM and 83 nM, respectively.
